Experimental data reported in ChEMBL document CHEMBL1142134, “Characterization of squalene epoxidase of Saccharomyces cerevisiae by applying terbinafine-sensitive variants” (2007).
The source made the active and inactive calls. No cut-off for these calls is given here.

Assays:
Saccharomyces cerevisiae [1] = experiment: Increased sensitivity to growth inhibition in Saccharomyces cerevisiae KLN1 carrying erg1 pL37P allele after 24 hrs relative to wild type at 30 degC; type: functional
Saccharomyces cerevisiae [2] = experiment: Increased sensitivity to growth inhibition in Saccharomyces cerevisiae KLN1 carrying erg1 pR269G allele after 24 hrs relative to wild type at 30 degC; type: functional
Saccharomyces cerevisiae [3] = experiment: Growth inhibition in Saccharomyces cerevisiae KLN1 carrying erg1 pG30S allele at 0.5 ug/ml after 24 hrs at 30 degC; type: functional, organism-based
Saccharomyces cerevisiae [4] = experiment: Growth inhibition in Saccharomyces cerevisiae KLN1 carrying erg1 pR269G allele at 1 ug/ml after 24 hrs st 30 degC; type: functional, organism-based
Saccharomyces cerevisiae [5] = experiment: Growth inhibition in Saccharomyces cerevisiae KLN1 carrying erg1 pL37P allele at 0.2 ug/ml after 24 hrs at 30 degC; type: functional, organism-based

CN(C/C=C/c1ccccc1)Cc1cccc2ccccc12 [NAFTIFINE]
Fold change (Saccharomyces cerevisiae [1]): >25
Fold change (Saccharomyces cerevisiae [2]): >10

CC(=O)N1CCN(c2ccc(OCC3COC(Cn4ccnc4)(c4ccc(Cl)cc4Cl)O3)cc2)CC1 (centres undefined) [KETOCONAZOLE]
Fold change (Saccharomyces cerevisiae [1]): 5
Fold change (Saccharomyces cerevisiae [2]): 2

CN(C/C=C/C#CC(C)(C)C)Cc1cccc2ccccc12 [TERBINAFINE]
Fold change (Saccharomyces cerevisiae [1]): >10
Fold change (Saccharomyces cerevisiae [2]): >5
Activity (Saccharomyces cerevisiae [3]): Active
Activity (Saccharomyces cerevisiae [4]): Active
Activity (Saccharomyces cerevisiae [5]): Active
